# Source: patent US20060154932A1, “Pharmaceutical compositions and method of treating parkinson's disease” (priority 2002, published 2006)
# How the values were obtained:
# [1] = system: Parkinson's disease; conditions: cited from earlier work
# [2] = system: Parkinson's disease; experiment: Unified Parkinson's Disease Rating Scale (UPDRS) Part III motor examination of a patient; type: in vivo, human; conditions: Patient 1
# Experimental: Patent 1, a person, was administered Part III (motor examination) of the Unified Parkinson's Disease Rating Scale (hereinunder abbreviated as UPDRS) and diagnosed as having Parkinson=3 s disease (scoring a 20 in the test). After a period of evaluation of drug therapy options, the patient was prescribed pergolide, 0.25 mg tid and selegiline 5 mg po. After six (6) months on drug therapy, the patient was once again examined with the UPDRS motor subset and scored 16.5. After three (3) months on the drug, 25 mg of VIOXX, once a day was added to the treatment regime. After four (4) additional months, the patient was once again administered the UPDRS, this time scoring a 6.0. After six (6) months on the VIOXX tripartite therapy, the patient was again administered the UPDRS motor examination and scored 4.0. (see Fahn S, Elton R L, Members of the UPDRS Development Committee. Unified Parkinson's disease rating scale. In: Fahn S, Marsden C D, Calne D, Goldstein M, eds. Recent developments in Parkinson=3 s disease, Vol II. Florham Park, N.J.: Macmillan Healthcare Information, 1987:153-163, 293-304): […]
# [3] = system: Parkinson's disease; experiment: Patient-reported tremor in a Parkinson's disease patient; type: in vivo, human; conditions: VIOXX 25 mg once a day added to Endo L-C 100-25 TID
# Experimental: Patient 8 (person one), an adult, was diagnosed as having Parkinson's disease. After evaluation the patient was prescribed Endo L-C 100-25, TID. Approximately three years later, the patient began taking VIOXX (25 mg) once a day. After three weeks, patient noticed that severity of tremors had decreased and the frequency between the tremors had increased. In addition, night time tremors, those associated with sleeping, had dramatically subsided (i.e. by up to 90%). Overall, the patient reports that the tremors have subsided nearly 40%.
smiles,measurement,setting,value
"NC12CC3CC(CC(C3)C1)C2 [Amantadine, amantadine]","patients for whom useful in treating early, mild parkinsonism",[1]; 100 to 300 mg/day po,50%
N[C@@H](Cc1ccc(O)c(O)c1)C(=O)O [levodopa],patients beginning to experience fluctuations in their response (wearing off or on-off effect),[1]; after 2 to 5 yr of treatment,> 50%
"CS(=O)(=O)c1ccc(C2=C(c3ccccc3)C(=O)OC2)cc1 [VIOXX, rofecoxib]",UPDRS score,"[2]; 25 mg VIOXX once a day added to pergolide and selegiline, after four additional months",6.0
same,UPDRS motor examination score,"[2]; after six months on the VIOXX tripartite therapy (VIOXX 25 mg once a day, pergolide, selegiline)",4.0
same,severity of tremors,"[3]; Patient 8 (person one), after three weeks",decreased
same,night time tremors (associated with sleeping) subsided,[3]; Patient 8,up to 90%
same,tremors subsided overall (patient report),[3]; Patient 8,~40%
same,frequency between the tremors,"[3]; Patient 8, after three weeks",increased
"C#CCN(C)[C@H](C)Cc1ccccc1 [Selegiline, selegiline]",delay of the initiation of levodopa,[1]; used as initial treatment,about 1 yr
